3 molecules from ChEMBL document CHEMBL6103657, “Discovery of a Potent SARM1 Base-Exchange Inhibitor with In Vivo Efficacy” (J Med Chem, 2025) can be followed below.

For orientation: solubility means how much of the substance goes into solution per volume. Low readings indicate little dissolved substance, high ones much dissolved substance. As a reminder, the logD is lipophilicity at a set pH, counting ionised and neutral species.

Data set [1] is described as follows: physchem. Particulars: buffer, pH 6.5.
A short description of data set [2]: physchem. As to conditions: octanol/aqueous buffer, pH 7.4.

The structures appear in SMILES notation. Where only a bound is given, the exact number is not on record here.

For the molecule `CC[C@@H](c1ccncc1)N(C)C(=O)N[C@@H]1COCC1(F)F`, the solubility in the data set “physchem [1]” is more than 299 µg/mL. This molecule also gave a logD in the data set “physchem [2]” of 0.73.
Take `C[C@@H](c1ccncc1)N(C)/C(=N\C#N)NC1COCC1(F)F` (stereo partly specified): the solubility in the data set “physchem [1]” is more than 309 µg/mL. The molecule also yielded a logD in the data set “physchem [2]” of 0.9.
For `CN(Cc1ccncc1)C(=O)NC1COCC1(F)F` (stereo unspecified) the same measures were more than 271 µg/mL and 0.3.
